Values quoted from earlier work in patent US6498171B2, “Hydroxyomeprazole compositions” (Sepracor Inc., priority 1998, dated 2002).

What was measured:
isolated gastric glands = conditions: read-out: IC50, inhibitory effect on aminopyrine uptake
[1] = humans
[2] = poor metabolizers vs extensive metabolizers, serum

IC50 (isolated gastric glands) [µM]	Cmax is at (time) [1] [h]	serum half-life ([1]; highly variable) [min]	8-hour AUC, poor metabolizers relative to extensive metabolizers [2]	Structure (SMILES)
33	–	–	–	COc1ccc2[nH]c([S+]([O-])Cc3ncc(CO)c(OC)c3C)nc2c1 (racemic) [racemic hydroxyomeprazole]
0.48	0.5 to 3.5	30 to 60	–	COc1ccc2[nH]c([S+]([O-])Cc3ncc(C)c(OC)c3C)nc2c1 (racemic) [racemic omeprazole, Omeprazole]
–	–	–	more than 10 times higher	COc1ccc2nc(S(=O)(=O)Cc3ncc(C)c(OC)c3C)[nH]c2c1 [omeprazole sulfone]
